From BindingDB's records for doi:10.1016/j.bmcl.2009.10.094 (Amgen, 2009)

Experiment: Antagonist activity at human CRTH2 receptor expressed in CEM cell assessed as inhibition of PGD2-induced cell migration after 3 hrs by transwell migration assay

EC50: 11 nM
SMILES: CC(=O)N(c1ccccc1)[C@@H]1C[C@H](C)N(C(=O)c2ccccc2)c2ccccc21 (racemic) [(+/-)-cis-N-(1-benzoyl-2-methyl-1,2,3,4-tetrahydroquinolin-4-yl)-N-phenylacetamide]
